Results on 25 compounds are retold here after the supplement of paper PMC12137928.

For assay [1], the system named is HCT116. The experiment in a line: efficacy (maximum % inhibition of viability vs DMSO); higher = more cytotoxic. As to conditions: 72 h. The method, boiled down: (§1)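 HCT116 cells were seeded at 250 per well in 1536-well plates with 5 h allowed for attachment. CellTiter-Glo luminescence was normalized against vehicle (0%) and positive control (-100%) before pattern correction. The IC50 and maximal efficacy figures derive from four-parameter Hill fits.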

The test system of assay [2] is HCT116. As to conditions: 72 h. The method, boiled down:
as §1

Where a name gives a salt, the structure may show the parent alone. A value given as a limit tells only on which side of the number the result lay.

Consider `C=C1/C(=C\C=C2/CCC[C@]3(C)[C@@H]([C@H](C)CCCC(O)(C(F)(F)F)C(F)(F)F)CC[C@@H]23)C[C@@H](O)C[C@@H]1O` [Falecalcitriol], for which the efficacy is 68.9% in the assay on HCT116 [1] (ICRF193 0 nM) and 96.5% with HCT116 [1] (ICRF193 200 nM). Also, the IC50 cell viability was determined as 29.1 µM with HCT116 [2] (ICRF193 0 nM) and 23.1 µM with HCT116 [2] (ICRF193 200 nM).

`CCOC(=O)C1=C(C)NC(C)=C(C(=O)OC)C1c1cccc(Cl)c1Cl` (stereo not drawn) [Felodipine]: the results for the efficacy in the assay with HCT116 [1] (ICRF193 0 nM) and in the assay with HCT116 [1] (ICRF193 200 nM) were 47.4% and 52%, respectively. For the same compound, the IC50 cell viability with HCT116 [2] (ICRF193 0 nM) and in the assay with HCT116 [2] (ICRF193 200 nM) was 18.3 µM each time.

As for `CCc1c(Cl)c(O)c(Cl)c(O)c1C(=O)O[C@H]1[C@H](O)[C@H](OC)[C@H](OC/C2=C\C=C\C[C@H](O)/C(C)=C/[C@H](CC)[C@@H](O[C@@H]3OC(C)(C)[C@@H](OC(=O)C(C)C)[C@H](O)[C@@H]3O)/C(C)=C/C(C)=C/C[C@@H]([C@@H](C)O)OC2=O)O[C@@H]1C` [Fidaxomicin], the efficacy in the assay with HCT116 [1] (ICRF193 0 nM) is 103%; with HCT116 [1] (ICRF193 200 nM) it was 53.2%. For the same compound, the IC50 cell viability in the assay on HCT116 [2] (ICRF193 0 nM) and in the assay with HCT116 [2] (ICRF193 200 nM) was 20.6 µM each time.

As for `N#Cc1c(N2C[C@@H]3NCCO[C@H]3C2)c(F)cc2c(=O)c(C(=O)O)cn(C3CC3)c12` [Finafloxacin], in the assay on HCT116 [1] (ICRF193 200 nM), the efficacy was 72.2%. Moreover, the IC50 cell viability is above 45.8 µM with HCT116 [2] (ICRF193 0 nM) and 18.3 µM with HCT116 [2] (ICRF193 200 nM).

For `CCCCCCCCc1ccc(CCC(N)(CO)CO)cc1` [Fingolimod hydrochloride], the efficacy is 108% in the assay with HCT116 [1] (ICRF193 0 nM) and 100% in the assay on HCT116 [1] (ICRF193 200 nM). Also, the IC50 cell viability with HCT116 [2] (ICRF193 0 nM) was found to be 29.1 µM; in the assay with HCT116 [2] (ICRF193 200 nM) it was 20.6 µM.

Take `O=c1[nH]c(=O)n([C@H]2C[C@H](O)[C@@H](CO)O2)cc1F` [Floxuridine]: the efficacy in the assay on HCT116 [1] (ICRF193 0 nM) came to 49.1%; with HCT116 [1] (ICRF193 200 nM), 43%. Also, the figures for the IC50 cell viability in the assay with HCT116 [2] (ICRF193 0 nM) and in the assay with HCT116 [2] (ICRF193 200 nM) were 2.91 µM and 1.16 µM, respectively.

Consider `Fc1ccc(C(c2ccc(F)cc2)N2CCN(C/C=C/c3ccccc3)CC2)cc1` [Flunarizine], for which the values for the efficacy in the assay on HCT116 [1] (ICRF193 0 nM) and in the assay on HCT116 [1] (ICRF193 200 nM) were 109% and 80%, respectively. The IC50 cell viability was 20.6 µM in the assay with HCT116 [2] (ICRF193 0 nM) and 18.3 µM in the assay with HCT116 [2] (ICRF193 200 nM).

Regarding `CN1CCN(CCCN2c3ccccc3Sc3ccc(C(F)(F)F)cc32)CC1` [Fluoperazine dihydrochloride], the efficacy came out at 92.3% in the assay on HCT116 [1] (ICRF193 0 nM) and 94.5% with HCT116 [1] (ICRF193 200 nM). Moreover, the IC50 cell viability with HCT116 [2] (ICRF193 0 nM) and in the assay on HCT116 [2] (ICRF193 200 nM) was 18.3 µM in each case.

For the compound `O=c1[nH]cc(F)c(=O)[nH]1` [Fluorouracil], the efficacy in the assay on HCT116 [1] (ICRF193 0 nM) was 59.5%; with HCT116 [1] (ICRF193 200 nM), 55.4%. Moreover, the IC50 cell viability was found to be 10.3 µM in the assay with HCT116 [2] (ICRF193 0 nM) and 20.6 µM in the assay with HCT116 [2] (ICRF193 200 nM).

For `CCCCCCCCCC(=O)OCCN1CCN(CCCN2c3ccccc3Sc3ccc(C(F)(F)F)cc32)CC1` [Fluphenazine decanoate dihydrochloride], the results for the efficacy in the assay with HCT116 [1] (ICRF193 0 nM) and in the assay on HCT116 [1] (ICRF193 200 nM) were 81% and 99.6%, respectively. Besides, the IC50 cell viability with HCT116 [2] (ICRF193 0 nM) and in the assay with HCT116 [2] (ICRF193 200 nM) was 20.6 µM in each case.

For the compound `OCCN1CCN(CCCN2c3ccccc3Sc3ccc(C(F)(F)F)cc32)CC1` [Fluphenazine hydrochloride], the efficacy in the assay on HCT116 [1] (ICRF193 0 nM) stood at 110%; in the assay on HCT116 [1] (ICRF193 200 nM), 104%. Besides, the figures for the IC50 cell viability in the assay on HCT116 [2] (ICRF193 0 nM) and in the assay with HCT116 [2] (ICRF193 200 nM) were 29.1 µM and 20.6 µM, respectively.

Take `Cc1cc(C2=NOC(c3cc(Cl)cc(Cl)c3)(C(F)(F)F)C2)ccc1C(=O)NCC(=O)NCC(F)(F)F` (stereo not drawn) [Fluralaner]: the efficacy with HCT116 [1] (ICRF193 0 nM) stood at 96.5%; in the assay with HCT116 [1] (ICRF193 200 nM), 104%. For the same compound, the IC50 cell viability in the assay on HCT116 [2] (ICRF193 0 nM) was 18.3 µM; with HCT116 [2] (ICRF193 200 nM) it was 29.1 µM.

Take `C[C@@H]1C[C@H]2[C@@H]3C[C@H](F)C4=CC(=O)C=C[C@]4(C)[C@@]3(F)[C@@H](O)C[C@]2(C)[C@@]1(OC(=O)c1ccco1)C(=O)SCF` [Fluticasone furoate]: the efficacy with HCT116 [1] (ICRF193 0 nM) was determined as 83.8%. The IC50 cell viability in the assay with HCT116 [2] (ICRF193 0 nM) is 29.1 µM; in the assay with HCT116 [2] (ICRF193 200 nM), above 45.8 µM.

In the case of `CC(CN1c2ccccc2Sc2ccc(S(=O)(=O)N(C)C)cc21)N(C)C` (stereo not drawn) [Fonazine], the results for the efficacy with HCT116 [1] (ICRF193 0 nM) and in the assay on HCT116 [1] (ICRF193 200 nM) were 56% and 70.3%, respectively. For the same compound, the IC50 cell viability came out at 22.4 µM with HCT116 [2] (ICRF193 0 nM) and 35.5 µM in the assay on HCT116 [2] (ICRF193 200 nM).

Regarding `C[C@]12Cc3nonc3C[C@@H]1CC[C@@H]1[C@@H]2CC[C@@]2(C)[C@H]1CC[C@]2(C)O` [Furazabol], the results for the efficacy with HCT116 [1] (ICRF193 0 nM) and with HCT116 [1] (ICRF193 200 nM) were 46.7% and 51.4%, respectively. The IC50 cell viability was found to be 18.3 µM in the assay with HCT116 [2] (ICRF193 0 nM) and 23.1 µM with HCT116 [2] (ICRF193 200 nM).

Regarding `CC/N=C(\NCC)NCCCC[C@H](NC(=O)[C@H](CC(C)C)NC(=O)[C@@H](CCCCN/C(=N/CC)NCC)NC(=O)[C@H](Cc1ccc(O)cc1)NC(=O)[C@H](CO)NC(=O)[C@@H](Cc1cccnc1)NC(=O)[C@@H](Cc1ccc(Cl)cc1)NC(=O)[C@@H](Cc1ccc2ccccc2c1)NC(C)=O)C(=O)N1CCC[C@H]1C(=O)N[C@H](C)C(N)=O` [Ganirelix], the efficacy in the assay with HCT116 [1] (ICRF193 0 nM) was 80.9%; in the assay on HCT116 [1] (ICRF193 200 nM) it was 82.7%. Moreover, the IC50 cell viability amounted to 4.61 µM in the assay with HCT116 [2] (ICRF193 0 nM) and 5.17 µM with HCT116 [2] (ICRF193 200 nM).

Turning to `COc1cc2ncnc(Nc3ccc(F)c(Cl)c3)c2cc1OCCCN1CCOCC1` [Gefitinib], the figures for the efficacy with HCT116 [1] (ICRF193 0 nM) and in the assay on HCT116 [1] (ICRF193 200 nM) were 86.4% and 98.2%, respectively. In addition, the IC50 cell viability in the assay on HCT116 [2] (ICRF193 0 nM) is 20.6 µM; in the assay on HCT116 [2] (ICRF193 200 nM) it was 29.1 µM.

Take `Nc1ccn([C@@H]2O[C@H](CO)[C@@H](O)C2(F)F)c(=O)n1` [Gemcitabine]: the efficacy is 53.5% in the assay on HCT116 [1] (ICRF193 0 nM) and 56% in the assay on HCT116 [1] (ICRF193 200 nM). The IC50 cell viability is 0.092 µM in the assay on HCT116 [2] (ICRF193 0 nM) and 0.0461 µM in the assay on HCT116 [2] (ICRF193 200 nM).

In the assay with HCT116 [1] (ICRF193 200 nM), `O=c1c(-c2ccc(O)cc2)coc2cc(O)cc(O)c12` [Genistein] displayed an efficacy of 42.9%. Further, the results for the IC50 cell viability with HCT116 [2] (ICRF193 0 nM) and with HCT116 [2] (ICRF193 200 nM) were above 45.8 µM and 16.4 µM, respectively.

For `C#C[C@]1(O)CC[C@H]2[C@@H]3CCC4=CC(=O)CCC4=C3C=C[C@@]21CC` [Gestrinone], the efficacy with HCT116 [1] (ICRF193 0 nM) turned out to be 56.7%. For the same compound, the IC50 cell viability in the assay on HCT116 [2] (ICRF193 0 nM) is 25.9 µM; in the assay with HCT116 [2] (ICRF193 200 nM), above 45.8 µM.

`CC[C@@]1(O)C(=O)OCc2c1cc1n(c2=O)Cc2c-1nc1ccccc1c2/C=N/OC(C)(C)C` [Gimatecan]: in the assay with HCT116 [1] (ICRF193 0 nM), the efficacy worked out at 48.8%. For the same compound, the IC50 cell viability in the assay on HCT116 [2] (ICRF193 0 nM) was 0.183 µM; with HCT116 [2] (ICRF193 200 nM), above 45.8 µM.

`N[C@@H](CCC(=O)N[C@@H](CS)C(=O)NCC(=O)O)C(=O)O` [Glutathione] showed an efficacy with HCT116 [1] (ICRF193 200 nM) of 79.8%. Further, the values for the IC50 cell viability with HCT116 [2] (ICRF193 0 nM) and with HCT116 [2] (ICRF193 200 nM) were above 45.8 µM and 3.18 µM, respectively.

Consider `CN(C)c1ccc(C(=C2C=CC(=[N+](C)C)C=C2)c2c(O)c(S(=O)(=O)[O-])cc3cc(S(=O)(=O)O)ccc23)cc1` [Green S], for which the efficacy with HCT116 [1] (ICRF193 0 nM) came out at 93.6%; in the assay on HCT116 [1] (ICRF193 200 nM), 79.5%. In addition, the IC50 cell viability with HCT116 [2] (ICRF193 0 nM) came to 18.3 µM; with HCT116 [2] (ICRF193 200 nM), 10.3 µM.

Take `COC1=CC(=O)C[C@@H](C)[C@]12Oc1c(Cl)c(OC)cc(OC)c1C2=O` [Griseofulvin]: the efficacy in the assay on HCT116 [1] (ICRF193 0 nM) is 66.1%; in the assay on HCT116 [1] (ICRF193 200 nM) it was 65%. Besides, the IC50 cell viability worked out at 29.1 µM with HCT116 [2] (ICRF193 0 nM) and 20.6 µM with HCT116 [2] (ICRF193 200 nM).

`N=C(N)N/N=C/c1c(Cl)cccc1Cl` [Guanabenz] returned an efficacy in the assay on HCT116 [1] (ICRF193 0 nM) of 45.5%. The IC50 cell viability was 23.1 µM in the assay on HCT116 [2] (ICRF193 0 nM) and above 45.8 µM in the assay with HCT116 [2] (ICRF193 200 nM).
